In patent publication US10920230B2, “Methylotrophs for aquaculture and animal feed” (KnipBio, Inc., priority 2013, dated 2021) one finds naturally resistant below and MIC data, which are given here for two compounds.

In assay [1] the test system is wild-type B. fungorum LB400. In words: Natural chloramphenicol resistance seen during selection of transconjugants. Format: cell-based, Burkholderia fungorum. To be noted: citrate medium. How it is done: A ΔflhA::kan mutant of B. fungorum LB400 was generated by introducing pCM363 by conjugation. […] One tetracycline-sensitive strain representing a ΔfIhA::kan mutant, CM363K.1, was chosen for further study. The plasmid pCM157 was used as described above to produce the ΔflhA strain CM363.1. Analytical PCR was performed with wild-type B. fungorum LB400, CM363K.1, and CM363.1 for confirmation (data not shown).

Each structure is given as a SMILES string. ≈ marks a conversion by molar mass, not a printed value.

For the compound `O=C(N[C@H](CO)[C@H](O)c1ccc([N+](=O)[O-])cc1)C(Cl)Cl` [chloramphenicol], the naturally resistant below in assay [1] was 10 to 20 µg/mL.
For `C=O` [formaldehyde], in the assay with ΔflhA strain CM363.1, the MIC came to 100 µM (≈ 3 µg/mL).

A word on the MIC: it is the lowest concentration that inhibits growth of the organism.
